This is an account of results in PMC8533089, “Characteristics of Neurokinin-3 Receptor and Its Binding Sites by Mutational Analysis” (Biology, 2021).

Read-outs that look alike come from different tables or passages of the source. Where no end group is shown, it is not given here.

For assay [1], the system named is FSH and LH release. The note with it: in vivo and in vitro; cited from earlier work. From the text: (§1) The effect of NKB/NKF peptides on gonadotropin secretion in fish is already well established. The first indication that NKB is widely expressed in fish species and has a stimulatory reproductive effect was shown in zebrafish, goldfish, and tilapia. […] Osetanant re ...

In assay [2] the target is tiTac3Ra (Oreochromis niloticus, UniProt A0A075QPN8). Put plainly: CRE-Luc antagonist assay, wild-type receptor, COS-7. Format: cell-based, tilapia (Oreochromis niloticus). The settings on record: for IC50: antagonist 0.001–1000 μM added 10 min before peptide, COS-7, CRE-Luc. As to the method: (§2) In order to study the signaling pathways of the mutant tiTac3Ra, the entire coding regions of tiTac3Ra (GenBank accession no. KF471674), and both of the mutant receptors were inserted into pcDNA3.1 (Invitrogen, Massachusetts, United States). We used a sensitive luciferase (LUC) reporter gene assay. […] Transient transfection, cell procedures and stimulation protocols followed the procedures previously described. Briefly, 3 μg of each construct, together with 3 μg of a luciferase reporter plasmid were transiently transfected into COS-7 cells (American Type Culture Collection, Manassas, VA, USA). Forty-eight hours after transfection, cells transfected with Tac3Ra plasmid fused with GFP were applied with an Hoechst dye (Invitrogen, Massachusetts, United States; diluted 1:1000) in order to mark nuclei in the culture for transfection analysis.
Chain of tiTac3Ra (A0A075QPN8 entry or part of it): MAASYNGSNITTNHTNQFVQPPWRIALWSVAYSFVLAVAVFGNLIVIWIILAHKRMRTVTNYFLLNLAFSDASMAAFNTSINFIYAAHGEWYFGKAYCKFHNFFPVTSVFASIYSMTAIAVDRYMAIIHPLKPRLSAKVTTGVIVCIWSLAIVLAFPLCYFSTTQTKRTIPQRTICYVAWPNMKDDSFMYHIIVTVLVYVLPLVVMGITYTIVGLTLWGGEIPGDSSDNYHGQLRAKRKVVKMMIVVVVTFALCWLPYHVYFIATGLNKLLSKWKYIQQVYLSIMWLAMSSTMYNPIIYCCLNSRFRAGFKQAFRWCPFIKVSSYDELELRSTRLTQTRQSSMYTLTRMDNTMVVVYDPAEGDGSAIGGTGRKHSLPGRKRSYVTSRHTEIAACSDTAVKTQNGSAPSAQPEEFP
Non-peptide molecules, SB-222200 (Sigma, Merck, Darmstadt, Germany) and Osanetant (Axon Medchem, Reston, VA, USA), known to antagonize mammalian NK3R [49] were studied for their ability to antagonize tiTac3Ra, which was activated with a fixed dose of the native ligands (10 nM tiNKB or tiNKF), combined with increasing doses of the antagonists (0.001–1000 μM). The antagonists were added 10 min prior to the addition of the peptides. IC50 values were calculated from concentration response curves by means of computerized nonlinear curve-fitting with Prism version 9 software (GraphPad, San Diego, CA, USA). All experiments were repeated at least 3 times using cells from independent transfections, each performed in triplicate.
NKB antagonists, SB-222200 (Figure 7A) and Osanetant (Figure 7B) were added in increasing concentrations (0.001–1000 μM) to transfected COS-7 that expressed tiTac3Ra. Ten minutes after the induction of the antagonists, the ligand, tiNKB or tiNKF (10 nM) was added to the media.

Assay [3] has as its system LH plasma levels. Put plainly: In vivo effect of NKB antagonists on LH plasma levels (ELISA). Also on record: species or system adult male tilapia (Oreochromis niloticus). The settings on record: antagonist 100 µg/kg BW IP, then sGnRHa 10 µg/kg BW after 0.5 h; n = 10. The method, then: (§3) The levels of FSH, LH and GH in the plasma were measured by specific competitive enzyme-linked immunosorbent assay (ELISA), developed for tilapia, based on recombinant gonadotropins or GH that were created by using the yeast Pichia pastoris. For the ELISAs, we used primary antibody antisera against GH [51], FSHβ [52], or against rtLHβ [53], and rtFSHβα [52], rtLHβ [53] or tiGH for the standard curves. Sensitivity for the plasma measurements were 15.84 pg/mL for LH, 0.24 pg/mL for FSH and 30.0 pg/mL for GH. The inter-assay coefficient of variation (CV) was 14.8, 12.5, and 13.0%, while intra-assay CV was 7.2, 8.0, and 8.0% for LH, FSH and GH, respectively.
(§4) Adult male tilapia (BW 89.29 ± 32.93 g; gonado-somatic index (GSI) 0.24% ± 0.40%) were injected IP (intraperitoneal) with NKB antagonists, SB-222200 or Osanetant (100 µg/kg BW), and after 0.5 h, a second injection of sGnRHa (10 µg/kg BW) was added. Control groups were injected with sGnRHa ([DAla^6, Pro^9-Net]-mammalian GnRH; Bachem, Budendorf, Switzerland) 10 µg/kg BW) as a positive control. The fish were bled from the caudal blood vessels into heparinized syringes 0, 0.5, 2, 6 and 24 h after injection. This time course is according to standard protocols used previously to test the effect of GnRH on circulating levels of LH, FSH, and GH in tilapia. Blood samples were collected from the caudal vasculature and centrifuged (3200 rpm for 30 min at 4 °C) (Centrifuge: Fresco 17, Rotor: 75003424, Thermo Scientific™, Langenselbold Germany) to obtain plasma samples, which were stored at −20 °C until assayed. Three independent experiments were carried out for the in-vivo studies.

For assay [4], the system named is FSH plasma levels. Put plainly: In vivo effect of NKB antagonists on FSH plasma levels (ELISA). The arrangement: species or system adult male tilapia (Oreochromis niloticus). The settings on record: antagonist 100 µg/kg BW IP, sGnRHa 10 µg/kg BW after 0.5 h; n = 10. The method, then: as §3
as §4, with “Blood samples were collected from the caudal vasculature and centrifuged (3200 rpm for 30 min at 4 °C) (Centrifuge: Fresco 17, Rotor: 75003424, Thermo Scientific™, Langenselbold Germany) to obtain plasma samples, which were stored at −20 °C until assayed. Three independent experiments were carried out for the in-vivo studies.” left out
Background: ELISA stands for enzyme-linked immunosorbent assay.

The subject of assay [5] is FSH levels. The settings on record: daily oral dosing throughout the menstrual cycle; cited from earlier work.
Excerpt: as §1

Assay [6] concerns the target native tilapia Tac3Ra (WT). Nature of the assay: CRE-Luc receptor transactivation assay, wild-type receptor, COS-7. It counts as cell-based, tilapia (Oreochromis niloticus). The method, then:
as §2
(§5) Cells transfected with the tiTac3Ra construct and luciferase reporter plasmid were treated with tilapia NKB (tiNKB) and tiNKF at increasing doses (0.2–1000 nM). Luciferase activity (Luc) was measured, and compared to basal treatment, and the maximal effect (Luc fold activation) was calculated for each treatment.

The test system of assay [7] is tiTac3Ra mutant F251A. Nature of the assay: CRE-Luc receptor transactivation assay, F251A mutant, COS-7. Format: cell-based, tilapia (Oreochromis niloticus).
Excerpt: (§6) The expression vector for tilapia tiTac3Ra (GenBank accession no. KF471674) was modified with the Stratagene QuikChange mutagenesis kit (Stratagene, La Jolla, CA, USA), according to the manufacturer’s instructions using two complementary primers (Table 1). The procedure included 18 PCR cycles as specified by the manufacturer’s manual, and the use of Pfu polymerase for the reaction. The mutated construct was then digested with the restriction enzyme DpnI, which is specific to methylated and hemi-methylated DNA, to digest the template and to select the mutation-containing synthesized DNA. The vector was then transfected into XL1 competent cells (E.coli). Two colonies were sequenced and confirmed to contain the mutation without any undesired misincorporation of nucleotides.
(§7) In order to study the signaling pathways of the mutant tiTac3Ra, the entire coding regions of tiTac3Ra (GenBank accession no. KF471674), and both of the mutant receptors were inserted into pcDNA3.1 (Invitrogen, Massachusetts, United States). We used a sensitive luciferase (LUC) reporter gene assay. […]
as §5

Assay [8] concerns tiTac3Ra mutant M289A. Nature of the assay: CRE-Luc receptor transactivation assay, M289A mutant, COS-7. Format: cell-based, tilapia (Oreochromis niloticus).
Excerpt: as §6, §7, §5

Assay [9] deals with tiTac3Ra F251A mutant (Nile tilapia (Oreochromis niloticus)).
In assay [10] the target is tiTac3Ra M289A mutant (Nile tilapia (Oreochromis niloticus)).
Assay [11] concerns the target tilapia Tachykinin 3 receptor a (tiTac3Ra), wild type (Nile tilapia (Oreochromis niloticus)).

For the molecule “Succ-Asp-Ile-Phe-N(Me)Ile-Gly-Leu-Met-NH2 [tiNKB analog, tiNKB analog (Succ-Asp-Ile-Phe-N(Me)Ile-Gly-Leu-Met-NH2)]”, in assay [1], the “FSH and LH release” value is “significantly increased FSH and LH release both in-vivo and in-vitro”.
As usually defined, the IC50 is the midpoint of a concentration-inhibition curve. On to `CC(=O)N(C)C1(c2ccccc2)CCN(CCC[C@]2(c3ccc(Cl)c(Cl)c3)CCCN(C(=O)c3ccccc3)C2)CC1` [Osanetant], for which the IC50 in [2] (10 nM tiNKB, read-out: IC50 versus tiNKB) came out at 212000 nM; in assay [2] (10 nM tiNKF, read-out: IC50 versus tiNKF), 122000 nM. For the same molecule, the “inhibitory effect on Tac3Ra activation” value in assay [2] (in words) is given as “strong inhibitory effect”. Moreover, the “LH release, combination with sGnRHa” value in assay [3] is given as “no inhibitory effects on LH plasma levels”. Also, the “FSH levels, 2 h post injection, combination with sGnRHa” value in [4] is given as “increased FSH levels”.
Take `Cc1nsc(-c2nnc3n2CCN(C(=O)c2ccc(F)cc2)[C@@H]3C)n1` [ESN364]: in [5], the FSH levels result is given as “did not alter FSH levels”.
Turning to “Succ-Asp-Ser-Phe-N(Me)Val-Gly-Leu-Met-NH2 [NKF analog, NKF analog (Succ-Asp-Ser-Phe-N(Me)Val-Gly-Leu-Met-NH2)]”, in assay [1], the “FSH and LH release” value was “significantly increased FSH and LH release both in-vivo and in-vitro”.
Consider “Succ-Asp-Phe-N(Me)Val-Gly-Leu-Met-NH2 [zfNKBb analog, zfNKBb analog (Succ-Asp-Phe-N(Me)Val-Gly-Leu-Met-NH2)]”, for which the “FSH and LH release” value in assay [1] is “significantly increased FSH and LH release both in-vivo and in-vitro”.
By EC50 is commonly meant the concentration that produces a half-maximal response. Regarding “pyroglutaminated [p]-EMDDIFIGLM-NH2 [tiNKB, native tilapia Neurokinin B peptide, synthesized by GL Biochem]”, in assay [6] (CRE-Luc, COS-7, 0.2–1000 nM, calculated when max effect >2.0), the EC50 was 2.48 ± 0.05 nM. Also, the Min effective dose in assay [6] (CRE-Luc, COS-7, WT) is 0.316 nM. In addition, the “Max effect (Luc fold activation)” value in assay [6] (WT, COS-7, CRE-Luc, vs basal, 0.2–1000 nM) amounted to 3.36 ± 0.46 Luc fold activation; in [7] (F251A, COS-7, CRE-Luc, vs basal, 0.2–1000 nM), 2.0 ± 0.32 Luc fold activation; in assay [8] (M289A, COS-7, CRE-Luc, vs basal, 0.2–1000 nM) it was 1.71 ± 0.46 Luc fold activation. The “receptor activity of mutant versus WT (CRE-luciferase)” value is listed as “substantial decrease in receptor activity” in assay [7] (Phe251^6.44Ala, 0.2–1000 nM peptide) and “substantial decrease in receptor activity” in assay [8] (Met289^7.43Ala, 0.2–1000 nM peptide).
For the molecule “Succ-Asp-Ile-Phe-N(Me)Val-Gly-Leu-Met-NH2 [zfNKBa analog, zfNKBa analog (Succ-Asp-Ile-Phe-N(Me)Val-Gly-Leu-Met-NH2)]”, in assay [1], the “FSH and LH release” value was “significantly increased FSH and LH release both in-vivo and in-vitro”.
YNDLDYDSFVGLM-NH2 [Tilapia NKF (neurokinin F)] registered a Max effect (Luc fold activation), CRE-luciferase receptor transactivation in transfected COS-7 cells, peptide 0.2-1000 nM (Luc fold activation) in assay [9] of 1.99. This molecule also showed a Max effect (Luc fold activation), CRE-luciferase receptor transactivation in transfected COS-7 cells, peptide 0.2-1000 nM (Luc fold activation) in assay [10] of 1.84. In [11], the EC50 (nM) of CRE-luciferase receptor transactivation in transfected COS-7 cells, peptide 0.2-1000 nM was 65.2 nM; the Max effect (Luc fold activation), CRE-luciferase receptor transactivation in transfected COS-7 cells, peptide 0.2-1000 nM (Luc fold activation) worked out at 3.87; the Min effective dose (nM), CRE-luciferase receptor transactivation in transfected COS-7 cells stood at 0.316 nM.

B1: Tilapia NKB (neurokinin B) (peptide)
peptide: EMDDIFIGLM
HELM: PEPTIDE1{[Glp].M.D.D.I.F.I.G.L.M.[am]}$$$$V2.0
SMILES: CC[C@H](C)[C@H](NC(=O)[C@H](Cc1ccccc1)NC(=O)[C@@H](NC(=O)[C@H](CC(=O)O)NC(=O)[C@H](CC(=O)O)NC(=O)[C@H](CCSC)NC(=O)[C@@H]1CCC(=O)N1)[C@@H](C)CC)C(=O)NCC(=O)N[C@@H](CC(C)C)C(=O)N[C@@H](CCSC)C(N)=O
As to B1, the Max effect (Luc fold activation), CRE-luciferase receptor transactivation in transfected COS-7 cells, peptide 0.2-1000 nM (Luc fold activation) in [9] was determined as 2; in assay [10], 1.71; in [11], 3.36. In [11], this molecule returned an EC50 (nM) of CRE-luciferase receptor transactivation in transfected COS-7 cells, peptide 0.2-1000 nM of 2.48 nM. The molecule also came in with a Min effective dose (nM), CRE-luciferase receptor transactivation in transfected COS-7 cells in assay [11] of 0.316 nM.
